Assay results: US7939509B2, “Partial and full agonists of A1 adenosine receptors” (Gilead Sciences, Inc., priority 2002, dated 2011)
Where “and” joins values, the source holds several entries; their conditions need not be identical. Identical values can stand only once.

Key:
[1] = cited from earlier work
awake rats [2] = assay: Insulin dose response to reduce FFA with and without Compound A in awake rats; format: in vivo, rat
Procedure: FIG. 6 graphically represents how Compound A potentates the effect of insulin in reducing FFA levels. Shown are the dose response curves for the effect of insulin to reduce FFA obtained in the absence and presence of Compound A (0.5 mg/kg) in awake rats. Both insulin and Compound A were given via IP injection. Each data point is the mean±SEM of the maximal (peak effect) percent decrease in FFA levels from baseline from three to five rats.
The anti-lipolytic effects of Compound A were studied in awake rats. Animals were fasted overnight before experimental use. On the day of the experiment, animals were put in metabolic cages and left undisturbed to acclimate to the environment for 1-2 hrs. An infusion set (21 G×¾″, 0.8×19 mm U.T.W., 3½″, 9 cm tubing, volume 0.15 ml) was connected to the arterial catheter for blood sampling. A 1% sodium citrate saline solution was used to flush the lines. A pre-treatment blood sample was obtained from each animal to determine baseline values for FFA and TG. Compound A was given via oral gavage, sc injection, iv injection, or iv infusion, as described, for each different series of experiments. Blood samples were collected into serum separator tubes (Becton Dickinson, Franklin Lakes, N.J.) at pre-determined times, Blood was allowed to clot, and then centrifuged at 8000 rpm for 4 min at 4° C. The serum was stored at −80° C. and was thawed at 4° C. for determinations of FFA and TG contents.
The effect of insulin (0.005-1 U/kg) to reduce serum FFA was determined in the absence and presence of a single dose (0.5 mg/kg) of Compound A (FIG. 6). Baseline FFA levels before insulin administration in vehicle and Compound A treated groups were 0.84±0.01 and 0.92±0.02 mM, respectively. […] The insulin dose response to reduce FFA levels was then repeated in the presence of Compound A (0.5 mg/kg). Compound A alone (0.5 mg/kg) caused an 18% decrease in FFA levels. The doses of insulin that cause 50% decrease (ED50) in FFA levels in the absence and presence of Compound A were 0.4 and 0.1 U/kg, respectively.

awake rats [3] = assay: Anti-lipolytic effect: serum free fatty acids (FFA) in overnight-fasted awake rats; format: in vivo, rat
Procedure: All experimental procedures were performed under a protocol approved by the Institutional Animal Care and Use Committee of CV Therapeutics, Inc., and in accordance with the recommendations set forth in the Guide for the Care and Use of Laboratory Animals published by the National Research Council. Male Sprague-Dawley rats (225-250 gm) with either one or two indwelling catheters (carotid and jugular) were purchased from Charles River Laboratories (Wilmington, Mass.). Animals were housed 1 per cage in a room maintained on a 12 h light/dark cycle (light on 06.00-18.00 h) under constant temperature (22-25° C.) and with ad libitum access to food and water. The anti-lipolytic effects of Compound A were studied in awake rats. Animals were fasted overnight before experimental use. On the day of the experiment, animals were put in metabolic cages and left undisturbed to acclimate to the environment for 1-2 hrs. An infusion set (21 G×¾″, 0.8×19 mm U.T.W., 3½″, 9 cm tubing, volume 0.15 ml) was connected to the arterial catheter for blood sampling. A 1% sodium citrate saline solution was used to flush the lines. A pre-treatment blood sample was obtained from each animal to determine baseline values for FFA and TG. Compound A was given via oral gavage, sc injection, iv injection, or iv infusion, as described, for each different series of experiments. Blood samples were collected into serum separator tubes (Becton Dickinson, Franklin Lakes, N.J.) at pre-determined times, Blood was allowed to clot, and then centrifuged at 8000 rpm for 4 min at 4° C. The serum was stored at −80° C. and was thawed at 4° C. for determinations of FFA and TG contents. […] Sodium citrate and Triton WR1339 were purchased from Sigma (St. Louis, Mo.). Nicotinic acid and PEG 400 were purchased from VWR (by EMD Chemicals). Triton WR 1339 was diluted in warm saline (˜37° C.) with frequent vortexing. […] Compound A was dissolved in PEG 400, and then diluted with distilled water to make a 20% PEG drug solution. Serum FFA and TGs were measured using commercial kits from Wako Chemicals, Richmond, Va. Glucose and Insulin were measured using commercial kits from Wako Chemicals USA (Richmond, Va.). All data are reported as mean±SEM. Statistical analysis of data from experiments with 2 treatment groups was performed using the unpaired Student's t-test. Two way analysis of variance followed by Bonferroni's test was used for multiple comparisons.

## Nc1ncnc2c1ncn2[C@@H]1O[C@H](CO)[C@@H](O)[C@H]1O [adenosine]
[1]
  half-life: less than 10 sec

## insulin
Awake rats [2]; in the absence of Compound A
  dose of insulin that causes 50% decrease (ED50) in FFA levels: 0.4 (0.3916-0.4208, 95% Cl) U/kg and 0.4 U/kg
Awake rats [2]; in the presence of Compound A (0.5 mg/kg IP), 0.5 mg/kg
  dose of insulin that causes 50% decrease (ED50) in FFA levels: 0.1 (0.0935-0.133) U/kg and 0.1 U/kg
Awake rats [2]; insulin 0.005-1 U/kg IP, without Compound A
  lowering of FFA levels by insulin: up to 67±1%

## O=C(O)c1cccnc1 [nicotinic acid, reference compound]
Awake rats [3]; 10 mg/kg iv bolus
  maximal decrease in FFA levels: 57±5%
Awake rats [3]; 10 mg/kg iv bolus, from 0.85±0.09, p<0.001
  FFA level after treatment: 0.35 ± 0.01 nM
Awake rats [3]; after iv bolus
  rebound increase of FFA levels: seen
